In experiment [1] the target is T1, LXRβ ligand-binding domain (Homo sapiens, UniProt P55055, DUP175-175).
T1 construct: amino acids 156-461; NP009052; made in house; host or cells: E. coli
T1 sequence (P55055 with tags, fused parts or gaps DUP175-175 limits assumed): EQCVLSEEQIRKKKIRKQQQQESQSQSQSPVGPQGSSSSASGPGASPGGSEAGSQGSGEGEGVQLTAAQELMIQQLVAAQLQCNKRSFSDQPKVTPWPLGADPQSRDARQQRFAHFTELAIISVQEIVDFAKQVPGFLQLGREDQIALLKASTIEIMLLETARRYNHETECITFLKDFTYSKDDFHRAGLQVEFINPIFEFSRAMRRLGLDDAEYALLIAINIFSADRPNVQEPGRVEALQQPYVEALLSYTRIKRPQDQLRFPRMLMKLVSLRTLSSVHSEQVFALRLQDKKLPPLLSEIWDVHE
Description: TR-FRETβ activity assay (NCoA3 coactivator peptide recruitment). In kind it is biochemical. The settings on record: TR-FRET, 1 μM 24(S)-25-epoxycholesterol prestimulation; read-out: FRETβ (EC50 range). A digest of the protocol:
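Inverse agonism assessed by loss of coactivator recruitment, read as TR-FRET 665/615 nm after 1 h equilibration at 4 °C, in triplicate. Ten-point titration from 50 μM to 0.002 μM against LXRβ LBD (76 nM, GST fusion) prestimulated with 1 μM 24(S)-25-epoxycholesterol, with 400 nM NCoA3 peptide, pH 6.8. Sulfonyl acetic acids kept as 20 mM DMSO stocks with 100 mM TFA.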

In experiment [2] the target is T2, ligand-binding domain (LBD) of LXRβ (Homo sapiens, UniProt P55055, DUP175-175).
T2 construct: LXRβ (amino acids 156-461); expressed in transfected cells; host or cells: HEK293
T2 sequence (P55055 with tags, fused parts or gaps DUP175-175 limits assumed): T1 sequence (P55055 with tags, fused parts or gaps DUP175-175 limits assumed)
In words: LXR Gal4 reporter transient transfection assay (LBD-M2H Gal4β). It counts as cell-based. The settings on record: HEK293 cells, LXRβ LBD; read-out: LBD-M2H Gal4β (EC50 range). As for the experimental part: (§1) The tested compounds were usually dissolved, tested and stored as 20 mM stock solutions in DMSO. Since sulfonyl acetic acid derivatives tend to decarboxylate under these conditions, these stock solutions were prepared, tested and stored as 20 mM DMSO stock solutions containing 100 mM trifluoroacetic Acid (5 equivalents). Sulfonyl acetic acid derivatives are shelf stable as solid at rt for long time as reported by Griesbrecht et al. (Synlett 2010:374) or Faucher et al. (J. Med. Chem. 2004; 47:18).
(§2) LXR Gal4 Reporter Transient Transfection Assays
(§3) LXRα and LXRβ activity status was determined via detection of interaction with coactivator and corepressor proteins in mammalian two-hybrid experiments (M2H). For this, via transient transfection the full length (FL) proteins of LXRα (amino acids 1-447; NP005684; SEQ ID NO:1) or LXRβ-(amino acids 1-461; NP009052; SEQ ID NO:2) or the ligand-binding domains (LBD) of LXRα (amino acids 155-447 SEQ ID NO:3) or LXRβ (amino acids 156-461; SEQ ID NO:4) were expressed from pCMV-AD (Stratagene) as fusions to the transcriptional activation domain of NFkB. As cofactors, domains of either the steroid receptor coactivator 1 (SRC1; amino acids 552-887; SEQ ID NO:5) or of the corepressor NCoR (amino acids 1906-2312; NP006302; SEQ ID NO:6) were expressed as fusions to the DNA binding domain of the yeast transcription factor GAL4 (from pCMV-BD; Stratagene). Interaction was monitored via activation of a coexpressed Firefly Luciferase Reporter gene under control of a promoter containing repetitive GAL4 response elements (vector pFRLuc; Stratagene). Transfection efficiency was controlled via cotransfection of constitutively active pRL-CMV Renila reniformis luciferase reporter (Promega). HEK293 cells were grown in minimum essential medium (MEM) with 2 mM L-glutamine and Earle's balanced salt solution supplemented with 8.3% fetal bovine serum, 0.1 mM non-essential amino acids, 1 mM sodium pyruvate, at 37° C. in 5% CO2. 3.5×10^4 cells/well were plated in 96-well cell culture plates in growth medium supplemented with 8.3% fetal bovine serum for 16-20 h to ˜90% confluency. For transfection, medium was taken off and LXR and cofactor expressing plasmids as well as the reporter plasmids are added in 30 μL OPTIMEM/well including polyethylene-imine (PEI) as vehicle. Typical amounts of plasmids transfected/well: pCMV-AD-LXR (5 ng), pCMV-BD-cofactor (5 ng), pFR-Luc (100 ng), pRL-CMV (0.5 ng). Compound stocks were prepared in DMSO, prediluted in MEM to a total volume of 120 μL, and added 4 h after addition of the transfection mixture (final vehicle concentration not exceeding 0.2%). Cells were incubated for additional 16 h, lysed for 10 min in 1× Passive Lysis Buffer (Promega) and Firefly and Renilla luciferase activities were measured sequentially in the same cell extract using buffers containing D-luciferine and coelenterazine, respectively. Measurements of luminescence were done in a BMG-luminometer.

Experiment [3] deals with T3, ligand-binding domain (LBD) of LXRα (Homo sapiens, UniProt Q13133).
T3 construct: expressed in transfected cells; host or cells: HEK293
T3 sequence (Q13133 155-447): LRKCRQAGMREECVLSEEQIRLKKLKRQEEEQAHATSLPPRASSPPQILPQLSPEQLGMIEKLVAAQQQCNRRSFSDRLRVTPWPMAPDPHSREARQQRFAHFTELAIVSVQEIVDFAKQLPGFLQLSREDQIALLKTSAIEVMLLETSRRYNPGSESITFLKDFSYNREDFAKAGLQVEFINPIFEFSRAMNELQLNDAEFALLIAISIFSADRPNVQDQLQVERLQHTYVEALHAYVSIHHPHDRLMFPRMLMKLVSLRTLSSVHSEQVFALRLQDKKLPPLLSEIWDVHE
Description: LXR Gal4 reporter transient transfection assay (LBD-M2H Gal4α). It counts as cell-based. The settings on record: HEK293 cells, LXRα LBD; read-out: LBD-M2H Gal4α (EC50 range). As for the experimental part:
as §1, §2, §3

In the case of `N#Cc1ccc(OCC(=O)O)cc1-c1c(-c2cccs2)n(S(=O)(=O)c2ccc(Cl)cc2)c2ccccc12` [21/1], the EC50 in experiment [1], in experiment [2] and in experiment [3] was 1000 to 10000 nM in each case.

Turning to `COc1ccc(S(=O)(=O)n2c(-c3ccccc3)c(-c3cc(C)sc3C#N)c3ccccc32)cc1` [20/23], the EC50 in experiment [1] lay in the range of 1000 to 10000 nM; in experiment [2] it was 100 to 1000 nM; in experiment [3] it was 100 to 1000 nM.

For the compound `Cc1ccc(S(=O)(=O)n2c(-c3ccsc3)c(-c3ccsc3C#N)c3ccccc32)cc1` [1/23], the concentration giving a half-maximal response (EC50) is 100 to 1000 nM in experiment [1], below 100 nM in experiment [2] and below 100 nM in experiment [3].

Take `CS(=O)(=O)NC(=O)C1CC1c1cccc(-c2c(-c3ccsc3C#N)c3ccccc3n2S(=O)(=O)c2ccc(Cl)cc2)c1` (stereo not drawn) [32/1]: the 50% effective concentration (EC50) in experiment [1] was 100 to 1000 nM; in experiment [2], below 100 nM; in experiment [3] it was 100 to 1000 nM.

As for `N#Cc1sccc1-c1c(-c2cccc(N3CC(C(=O)O)C3)n2)n(S(=O)(=O)c2ccc(Cl)cc2)c2ccccc12` [30/6], the EC50 lay within 1000 to 10000 nM in experiment [1], 100 to 1000 nM in experiment [2] and 100 to 1000 nM in experiment [3].

Turning to `N#Cc1sccc1-c1c(-c2cccc(CCCC(=O)O)c2)n(S(=O)(=O)c2ccc(Cl)cc2)c2ccccc12` [30/5], the results for the EC50 in experiment [1], in experiment [2] and in experiment [3] were 1000 to 10000 nM, below 100 nM and 100 to 1000 nM, respectively.

Turning to `N#Cc1nccnc1-c1c(-c2cccs2)n(S(=O)(=O)c2ccc(Cl)cc2)c2ccccc12` [20/7], the EC50 in experiment [1] was 1000 to 10000 nM; in experiment [2], below 100 nM; in experiment [3] it was 100 to 1000 nM.

On to `Cc1ccc(S(=O)(=O)n2c(-c3cccc(-c4cccc(C(C)(C)C(=O)O)c4)c3)c(-c3ccsc3C#N)c3ccccc32)cc1` [30/2], for which the values for the EC50 in experiment [1], in experiment [2] and in experiment [3] were 1000 to 10000 nM, 100 to 1000 nM and 100 to 1000 nM, respectively.

As for `N#Cc1sccc1-c1c(-c2cccc(C3CC3C(=O)O)c2)n(S(=O)(=O)C2CC2)c2ccccc12` (stereo not drawn) [30/12], the concentration giving a half-maximal response (EC50) in experiment [1] lay within 1000 to 10000 nM; in experiment [2], 100 to 1000 nM; in experiment [3], 1000 to 10000 nM.

In the case of `O=S(=O)(c1ccc(Cl)cc1)n1c(-c2cccs2)c(-c2ccsc2C(F)F)c2ccccc21` [20/3], the EC50 in experiment [1] was 100 to 1000 nM; in experiment [2], below 100 nM; in experiment [3], below 100 nM.

`Cc1ccc(S(=O)(=O)n2c(-c3cccc(C4CC4C(=O)O)c3)c(-c3ccsc3F)c3ccccc32)cc1` (stereo not drawn) [30/14]: the values for the EC50 in experiment [1], in experiment [2] and in experiment [3] were 1000 to 10000 nM, 100 to 1000 nM and 100 to 1000 nM, respectively.

As to `Cc1ccc(S(=O)(=O)n2c(-c3cccc(C(C)(C)C(=O)O)c3)c(-c3ccsc3C#N)c3ccccc32)cc1` [3/20], the EC50 in experiment [1] is 1000 to 10000 nM; in experiment [2], below 100 nM; in experiment [3], 100 to 1000 nM.

For the compound `N#Cc1sccc1-c1c(-c2cccs2)n(S(=O)(=O)c2ccc(F)cc2)c2ccccc12` [20/11], the figures for the EC50 in experiment [1], in experiment [2] and in experiment [3] were 100 to 1000 nM, below 100 nM and below 100 nM, respectively.

Regarding `N#Cc1sccc1-c1c(-c2ccccc2)n(S(=O)(=O)c2ccc(Cl)cc2)c2ccccc12` [Example 26, 3-(1-((4-Chlorophenyl)sulfonyl)-2-phenyl-1H-indol-3-yl)thiophene-2-carbonitrile], the EC50 in experiment [1] was 100 to 1000 nM; in experiment [2], below 100 nM; in experiment [3], below 100 nM.

Consider `N#Cc1sccc1-c1c(-c2ccc(F)cc2)n(S(=O)(=O)c2ccc(Cl)cc2)c2ccccc12` [26/1], for which the EC50 in experiment [1] is 1000 to 10000 nM; in experiment [2], below 100 nM; in experiment [3], 100 to 1000 nM.

`COc1ccc(S(=O)(=O)n2c(-c3ccccc3)c(-c3ccsc3C)c3ccccc32)cc1` [20/21]: the EC50 in experiment [1] is 1000 to 10000 nM; in experiment [2], below 100 nM; in experiment [3] it was 100 to 1000 nM.

Regarding `N#Cc1sccc1-c1c(-c2cccs2)n(S(=O)(=O)c2ccc(Cl)cc2)c2cc(OCCCCC(=O)O)ccc12` [15/5], the figures for the EC50 in experiment [1], in experiment [2] and in experiment [3] were 1000 to 10000 nM, below 100 nM and below 100 nM, respectively.

In the case of `NC(=O)c1sccc1-c1c(-c2cccs2)n(S(=O)(=O)c2ccc(Cl)cc2)c2ccccc12` [Example 22], the EC50 in experiment [1] is 1000 to 10000 nM; in experiment [2] it was 100 to 1000 nM; in experiment [3] it was 100 to 1000 nM.

On to `COc1ccc(S(=O)(=O)n2c(-c3ccccc3)c(C3=C(C#N)c4ccccc4CC3)c3ccccc32)cc1` [20/19], for which the EC50 is above 10000 nM in experiment [1], 100 to 1000 nM in experiment [2] and 100 to 1000 nM in experiment [3].

On to `N#Cc1c(OCC(=O)O)cccc1-c1c(-c2cccs2)n(S(=O)(=O)c2ccc(Cl)cc2)c2ccccc12` [21/2], for which the EC50 in experiment [1], in experiment [2] and in experiment [3] was 1000 to 10000 nM throughout.

For `N#Cc1ccncc1-c1c(-c2cccs2)n(S(=O)(=O)c2ccc(Cl)cc2)c2ccccc12` [20/2], the EC50 in experiment [1] was 1000 to 10000 nM; in experiment [2], below 100 nM; in experiment [3], 100 to 1000 nM.

With `Cc1ccc(S(=O)(=O)n2c(-c3cccc(C4CC4C(=O)O)c3)c(-c3ccc(F)cc3C#N)c3ccccc32)cc1` (stereo not drawn) [30/15], the EC50 lay in the range of 1000 to 10000 nM in experiment [1], 100 to 1000 nM in experiment [2] and 100 to 1000 nM in experiment [3].

Take `N#Cc1sccc1-c1c(-c2cccs2)n(S(=O)(=O)C2CCCCC2)c2ccccc12` [Example 24, 3-(1-(Cyclohexylsulfonyl)-2-(thiophen-2-yl)-1H-indol-3-yl)thiophene-2-carbonitrile]: the values for the EC50 in experiment [1], in experiment [2] and in experiment [3] were 1000 to 10000 nM, below 100 nM and 100 to 1000 nM, respectively.

Regarding `Cc1ncc(S(=O)(=O)n2c(-c3ccccc3)c(-c3ccsc3C#N)c3ccccc32)s1` [1/42], the EC50 in experiment [1] was 1000 to 10000 nM; in experiment [2], below 100 nM; in experiment [3], below 100 nM.

Turning to `N#Cc1sccc1-c1c(-c2cccs2)n(S(=O)(=O)c2ccc(Cl)cc2)c2cc(O)ccc12` [13/1], the EC50 in experiment [1] is 1000 to 10000 nM; in experiment [2], below 100 nM; in experiment [3], below 100 nM.

On to `N#Cc1sccc1-c1c(-c2cccc(OCCC(=O)O)n2)n(S(=O)(=O)c2ccc(Cl)cc2)c2ccccc12` [Example 31, 3-((6-(1-((4-Chlorophenyl)sulfonyl)-3-(2-cyanothiophen-3-yl)-1H-indol-2-yl)pyridin-2-yl)oxy)propanoic Acid], for which the results for the EC50 in experiment [1], in experiment [2] and in experiment [3] were 1000 to 10000 nM, 100 to 1000 nM and 100 to 1000 nM, respectively.
